Test [1] addresses T1, soluble guanylate cyclase (sGC) (Homo sapiens, UniProt Q02108+Q02153).
T1 construct: endogenously expressing soluble guanylate cyclase (sGC); endogenous in cells; host or cells: HEK293
T1 sequence (Q02153 1-619): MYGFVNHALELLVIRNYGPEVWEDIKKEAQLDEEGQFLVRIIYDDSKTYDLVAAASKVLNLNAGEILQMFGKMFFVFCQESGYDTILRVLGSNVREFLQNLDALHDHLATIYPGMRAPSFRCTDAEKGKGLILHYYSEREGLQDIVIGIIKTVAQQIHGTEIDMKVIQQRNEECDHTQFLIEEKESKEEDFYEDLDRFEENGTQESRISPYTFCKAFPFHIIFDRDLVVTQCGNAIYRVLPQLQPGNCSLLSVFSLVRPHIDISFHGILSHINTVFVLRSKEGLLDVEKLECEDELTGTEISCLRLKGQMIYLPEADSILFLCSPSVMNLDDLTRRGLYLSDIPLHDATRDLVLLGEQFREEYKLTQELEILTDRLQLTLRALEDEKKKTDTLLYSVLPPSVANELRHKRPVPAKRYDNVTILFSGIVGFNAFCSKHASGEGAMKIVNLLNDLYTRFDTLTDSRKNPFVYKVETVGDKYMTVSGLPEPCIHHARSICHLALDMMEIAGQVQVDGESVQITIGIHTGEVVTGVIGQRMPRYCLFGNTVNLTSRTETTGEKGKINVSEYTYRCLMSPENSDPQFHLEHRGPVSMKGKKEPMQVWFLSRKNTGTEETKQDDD
T1 sequence (Q02108 1-690): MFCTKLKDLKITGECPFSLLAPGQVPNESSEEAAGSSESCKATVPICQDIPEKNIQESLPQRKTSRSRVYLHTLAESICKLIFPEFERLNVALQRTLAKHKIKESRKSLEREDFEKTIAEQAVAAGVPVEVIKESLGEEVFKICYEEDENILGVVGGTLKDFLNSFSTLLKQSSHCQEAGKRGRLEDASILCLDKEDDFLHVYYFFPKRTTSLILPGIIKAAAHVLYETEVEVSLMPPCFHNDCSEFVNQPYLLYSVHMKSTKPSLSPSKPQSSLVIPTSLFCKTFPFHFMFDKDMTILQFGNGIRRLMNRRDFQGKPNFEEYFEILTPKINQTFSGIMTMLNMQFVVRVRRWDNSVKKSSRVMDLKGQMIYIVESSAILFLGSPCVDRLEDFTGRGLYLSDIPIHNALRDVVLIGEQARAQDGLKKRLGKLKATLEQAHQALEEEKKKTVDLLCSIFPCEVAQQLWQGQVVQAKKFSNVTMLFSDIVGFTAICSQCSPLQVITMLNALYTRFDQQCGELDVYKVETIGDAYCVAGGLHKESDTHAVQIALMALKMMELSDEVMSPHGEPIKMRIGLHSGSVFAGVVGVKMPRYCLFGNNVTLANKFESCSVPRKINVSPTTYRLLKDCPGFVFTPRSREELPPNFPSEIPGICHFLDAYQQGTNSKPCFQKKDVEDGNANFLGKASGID
As to the kind of experiment: sGC-HEK-cGMP assay, LC/MS detection, with SNP incubation (Example 2A). Type of test: cell-based. The settings on record: HEK293 cells, in the presence of 10 μM SNP; top of concentration-response curve not fitted to 100%; read-out: sGC_HEK_LCMS uEC50 (nM) Binned (unconstrained). Here is the method: Human embryonic kidney cells (HEK293), endogenously expressing soluble guanylate cyclase (sGC), were used to evaluate the activity of test compounds. Compounds stimulating the sGC receptor should cause an increase in the intracellular concentration of cGMP. HEK 293 cells were seeded in Dulbecco's Modification of Eagle's Medium supplemented with fetal bovine serum (10% final) and L-glutamine (2 mM final) in a 200 μL volume at a density of 1×10^5 cells/well in a poly-D-lysine coated 96 well flat bottom plate and grown overnight at 37° C. Medium was aspirated and cells were washed with 1× Hank's Buffered Saline Salt Solution (200 μL). Cells were then incubated for 15 minutes at 37° C. with 0.5 mM 3-isobutyl-1-methylxanthine (200 μL). Test article and sodium nitroprusside were then added to the assay mixture (2 μL each) and incubated at 37° C. for 10 minutes. After the 10 minute incubation, the assay mixture was aspirated and 0.1M HCl (200 μL) was added to the cells. The plate was incubated at 4° C. for 30 minutes in the 0.1M HCl to stop the reaction and lysed the cells. The plates were then centrifuged at 1,200 g for 5 minutes at room temperature. Supernatants were collected and transferred to a new flat bottom 96 well plate for analysis. Vehicle controls were carried out using DMSO (1%). A known sGC stimulator, BAY 41-2272, was used as the positive control. Samples were diluted with an equal volume of 1 M Ammonium Acetate (pH 7) to neutralize samples for better chromatography. A 2× cGMP standard curve was prepared in 0.1 M HCl and then diluted with an equal volume of 1 M Ammonium Acetate, with the following final concentrations in nM: 1024, 512, 256, 128, 64, 32, 16, 8, 4, 2, 1. cGMP concentrations were determined from each sample using the LC/MS conditions (Table 2 below) and calculated standard curve. EC50 values were calculated from concentration-response curves generated with GraphPad Prism Software.

Test [2] deals with T2, human recombinant soluble guanylate cyclase enzyme α1β1 (Homo sapiens, UniProt Q02108+Q02153).
T2 construct: purchased Enzo Life Sciences ALX-201-177
T2 sequence (Q02153 1-619): T1 sequence (Q02153 1-619)
T2 sequence (Q02108 1-690): T1 sequence (Q02108 1-690)
As to the kind of experiment: Purified human recombinant sGC α1β1 enzyme assay with DETA-NONOate, cGMP HTRF (Example 5). Type of test: biochemical. The settings on record: 30 uM DETA NONOate, 50% of maximal response of 30 uM Compound Y, read-out: sGC_Enz_HTRF_a1b1 EC50/IC50 Abs (Norm) (nM) Binned. As for the experimental part: Purified human recombinant soluble guanylate cyclase enzyme α1β1 (h sGC) obtained from Enzo Life Sciences (P/N: ALX-201-177) was used to evaluate the activity of test compounds. The assay reactions contained 0.1 M Tris (pH 8.0), 0.5 mg/mL BSA, 2 mM DTT, 4 mM MgCl2, 30 uM DETA NONOate (Enzo Life Science P/N: ALX-430-014), and 12.5 ng/ml human soluble guanylate cyclase enzyme. […] Guanosine 5′-triphosphate (Sigma-Aldrich P/N: G8877) was added to a final concentration of 300 μM and enzyme reactions were incubated (100 μL, 384-well plate format) at 37° C. for 20 minutes. The controls contained 3% DMSO (low control), or 30 uM of Compound Y (high control). After the 20 minute incubation, the reaction was stopped with the addition of 100 μL of ice cold 20% acetic acid.
cGMP concentrations in all samples were determined using the cGMP HTRF (Cisbio P/N: 62GM2PEC) assay per manufacturer's instructions. A cGMP standard curve was fit using a 4-parameter fit (log(inhibitor) vs. response variable slope) using GraphPad Prism Software v.6. Samples were diluted appropriately to ensure that values fell within the linear range of the standard curve.
Data were fit using a 4-parameter fit (log(agonist) vs. response variable slope) using GraphPad Prism Software v.6.

On to `OCCOc1nc(-c2cc(-c3ccon3)n(Cc3ccccc3F)n2)ncc1F` [Compound I-1], for which the EC50 in test [1] lay in the range of 100 to 1000 nM; in test [2], 1000 to 5000 nM.

Take `CN(C)CCOc1nc(-c2cc(-c3ccon3)n(Cc3ccccc3F)n2)ncc1F` [Compound I-2]: the figures for the EC50 in test [1] and in test [2] were 100 to 1000 nM and 1000 to 5000 nM, respectively.
